Results as given in article PMC10149936, “Cofilin activation in pancreatic acinar cells plays a pivotal convergent role for mediating CCK-stimulated enzyme secretion and growth” (Frontiers in Physiology, 2023).

How the values were obtained:
[1] = test system: cofilin-1 in epithelial cells; settings: micromolar concentrations, ref Zhang et al., 2018; cited from earlier work
Protocol: (Figures 11, 12) CCK-8 stimulates pancreatic growth in addition to being a physiological regulator of pancreatic enzyme secretion ([Jensen, 1994]; [Dufresne et al., 2006]) The activation of p44/42 MAPK by CCK-8 is an important signaling step in mediating its growth effects ([Dufresne et al., 2006]). Therefore, to study the possible role of cofilin in the activation of p44/42 MAPK in pancreatic acini, we examined the effect on cofilin activation of preincubation with two cofilin inhibitors (Cytochalasin D, Paclitaxel). (Figure 11) ([Shoji et al., 2012]; [Zhang et al., 2018]). The concentrations ...

[2] = test system: cofilin (pS3) in CCK1-R/Panc-1 cells; assay: cofilin activation (pS3 cofilin Western blot) in CCK1-R/Panc-1 cells; type: cell-based, human; settings: CCK-8 0.3 and 100 nM, 5 min
Protocol: CCK1 receptor transfected Panc-1 (CCK1-R/Panc-1) cells ([Berna et al., 2009]) and AR42J cells, were cultured in DMEM supplemented with 10% FBS and 1% penicillin/streptomycin and in RPMI supplemented with 10% FBS and 1% penicillin/streptomycin, respectively; and split 1:10 weekly with trypsin/EDTA, after washing in PBS. Finally, cells were seeded in 6-well plate and serum starved overnight, until they were 80% confluent. Cells were incubated at 37°C in 5% CO2/95% air. AR42J cells were treated with 100 nM dexamethasone for 72°h, which stimulates their differentiation into exocrine cells ([Logsdon, 1986]).
Pancreatic acini preparations were obtained by collagenase digestion as previously described ([Bissonnette et al., 1984]; [Sato et al., 1989]; [Ramos-Alvarez and Jensen, 2018]). […] Isolated acini and CCK1-R/Panc-1 cells (M&M 2.2.1) were also preincubated with two SSH1 inhibitors, D3 (25 μM, 1 h) ([Li et al., 2015]) or SE (50 μM, 3 h for acini; 24 h for CCK1-R/Panc-1 cells) ([Lee et al., 2017]). […] After sonication, lysates were centrifuged at 10,000×g for 15 min at 4°C and protein concentration was measured using the Bio-Rad protein assay reagent. […]
Western blotting and immunoprecipitation were performed as described previously ([Ramos-Alvarez and Jensen, 2018]). […] The intensity of the protein bands was measured using GeneTools software from Syngene, which were assessed in the linear detection range. […]
FIGURE 3 Effect of two SSH1 inhibitors, D3 and SE (A–C), or SSH1 siRNA (D), on the ability of CCK-8 (0.3 and 100 nM) to activate LIMK and cofilin in pancreatic acini (A/B) and activate cofilin in CCK1-R/Panc-1 cells (C/D). […] Western blots were analyzed using anti-pS3 cofilin and anti-pT508 […], and the knockdown effect of SSH1 was confirmed by Western blots using SSH1 (C-term) antibody. Bands were visualized using chemiluminescence and quantified by densitometry. […] Results are expressed as % of basal stimulation of the control group. *, p < 0.05 compared to the control group; ∞, p < 0.05 compared to stimulants without inhibitors. […]

Row | Molecule | effect on cofilin-1 expression levels [1] | effect on cofilin phosphorylation in CCK1-R/Panc-1 cells [2]
1 | CC(=O)O[C@H]1C(=O)[C@@]2(C)[C@H]([C@H](OC(=O)c3ccccc3)[C@]3(O)C[C@H](OC(=O)[C@H](O)[C@@H](NC(=O)c4ccccc4)c4ccccc4)C(C)=C1C3(C)C)[C@]1(OC(C)=O)CO[C@@H]1C[C@@H]2O [Paclitaxel] | significantly suppressed cofilin-1 expression levels | –
2 | COOH-terminal octapeptide of cholecystokinin [CCK-8] | – | caused rapidly dephosphorylation of cofilin
